The results in this text go back to patent publication US20060122153A1, “Antineoplastic ether lipid compounds with modifications at the sn-2 carbon” (priority 2003, published 2006).

The structures appear in SMILES notation. Where “and” joins values, the source holds several entries; their conditions need not be identical. Identical values can stand only once. Like-named read-outs stand apart in the source and are kept apart here.

One data set has as its system A549. As to the kind of experiment: In vitro growth inhibition (GI50), SRB assay. To be noted: A549 tumor cell line, 3 days. Format: cell-based, human. An excerpt: (§1) The following cell lines were selected from the cell bank for screening and GI50 studies: MCF-7: human breast tumor, MCF-7/ADR: MCF-7 adriamycin resistant subline, HT-29: human colon carcinoma, A-549: human non-small cell lung cancer, NIH-3T3: mouse Swiss embryo fibroblast and WI-38: human lung fibroblast, SKMEL-28: human melanoma, Lewis Lung: mouse lung carcinoma, DU-145: prostate carcinoma, B16F10: mouse melanoma, L1210: murine lymphocytic leukemia, P-388: murine leukemia, U-937: human histolytic lymphoma. Except HT-29, WI-38, NIH-3T3 and Lewis Lung which were obtained from the American Type Culture Collection (Rockville, Md.) all the other cell lines were obtained from National Cancer Institute—Frederick Research Facility (Frederick, Md.). All the cell lines were grown in RPMI-1640 medium containing 10% fetal bovine serum (FBS) except WI-38 and DU-145 which were grown in EMEM+10% FBS at 37° C., 5% CO2 and 100% humidity and NIH-3T3, Lewis Lung, B16F10 and L1210 which were grown in DMEM containing 10% FBS (10% HS for L1210). All the adherent cell lines were detached from the culture flasks by addition of 2-3 ml of 0.05% trypsin-EDTA. Thereafter, trypsin was inactivated by addition of 10 mL of 10% serum-containing RPMI-1640 medium. Cells were separated into a single-cell suspension by gentle pipetting action. Depending on the cell type, […] to 10,000 cells were plated onto 96-well plates a day prior to the drug treatment, in a volume of 100 μl per well.
(§2) The test compounds were made in-house and the compounds were dissolved PBS or saline at a stock concentration of approximately 20 mM, which is 400 times the desired final maximum test concentration. The stock solutions were then diluted with complete medium to twice the desired final concentration. 100 μl aliquots of each dilution was then added to the designated wells. After 3 days of incubation, cell growth was determined.
(§3) The SRB assay was performed as described by Monks, A., Scudiero, D., Skehan, P., Shoemaker, R., Paull, K., Vistica, D., Hose, C., Langley, J., Cronise, P., and Vaigro-Wolff, A. Feasibility of a high-flux anticancer drug screen using a diverse panel of cultured human tumo-r cell lines. J Natl Cancer Inst, 83: 757-766, 1991 with minor modifications. Following drug treatment, cells were fixed with 50 μl of cold 50% (wt/vol) trichloroacetic acid (TCA) for 60 minutes at 4° C. The supernatant was discarded, and the plates were washed six times with deionized water and then air dried. The precipitate was stained with 100 μl SRB solution (0.4% wt/vol in 1% acetic acid) for 10 minutes at room temperature, and free SRB was removed by washing three times with 1% acetic acid, and the plates were then air dried. Bound SRB was solubilized with Tris buffer (10 mM), and the ODs were read using an automated plate reader (Bio-Rad, Model 3550-UV) at 490 nm. Background values were subtracted from the test data, and the data was calculated as a % of control. […] Percentage growth was calculated as described by, Peters, A. C., Ahmad, I., Janoff, A. S., Pushkareva, M. Y., and Mayhew, E. Growth Inhibitory effects of liposome-associated 1-o-octadecyl-2-o-methyl-sn-glycero-3-phosphocholine. Lipids, 32:1045-1054, 1997. The raw optical density data Was imported into an Excel spreadsheet to determine dose responses. […] By varying drug concentration,-dose response curves were generated and the GI-50 values were calculated. The GI50 values for each experiment were calculated using data obtained from three duplicate wells on two separate plates.
(§4) For growth inhibitory evaluation, we used five human tumor cell lines (U937; HT29; A549; MCF7; MCF7/ADR) and two normal fibroblast cell lines (NIH-3T3, murine; WI-38, human).

The subject of a further data set is MCF7/ADR. Briefly: In vitro growth inhibition (GI50), SRB assay. Format: cell-based, human. As to conditions: MCF7/ADR tumor cell line, 3 days.
Source text: as §1, §2, §3, §4
Background: The SRB assay estimates cell density from bound dye.

In the next data set the test system is HT29. As to the kind of experiment: In vitro growth inhibition (GI50), SRB assay. As to conditions: HT29 tumor cell line, 3 days. The data set is classed as cell-based, human.
Source text: as §1, §2, §3, §4

Data set [1] concerns DEVDase activity (Caspase 3) in Jurkat T cells. As to the kind of experiment: DEVDase activity in Jurkat T cells. Format: cell-based. As to conditions: for % L-ET18OCH3 (DEVDase, 6 hrs): Jurkat T cells; for DEVDase activity compared to ET-18-OCH3 (in words): Jurkat T cell line. The procedure: Suspension cells were seeded at density 3.2×10^5 cells per mL in RPMI-1640 medium (Bio-Whittaker) supplemented with 10% heat inactivated FBS (Bio-Whittaker). Cells were pre-incubated overnight prior to treatment with the ether lipid compounds of the invention. At treatment time cell density was 5×10^5 cells per mL. Cells were incubated with the ether lipid compounds of the invention for various periods of time, usually 6 hours. Cells were collected, washed with 1×DPBS and resuspended in 110 μl of Buffer A (10 mM BEPES-KOH, pH 7.4, 2 mM EDTA, 0.1% CHAPS, 5 mM DTT, 1:100 dilution of protease inhibitors cocktail (Sigma)-DTT and protease inhibitors should be added just before use). After 10 min incubation on ice in order to lyse cells, samples were frozen on dry ice/ethanol and kept at −20° C. until analysis.
At the time of analysis of DEVDase activity frozen pellets were kept on ice until thawed and after vigorous vortexing samples were centrifuged at 14,000 rpm for 6 min.; Supernatant was transferred into another tube and 2 μl, in triplicates, were used for protein measurement using Bradford reagent (Bio-Rad).
Measurement of DEVDase activity was carried out in 100 μl volume, where 10 μg of protein was delivered in 50 μl of Buffer A and 40 μM of substrate Ac-DEVD-AMC was also delivered in 50 μl of Buffer A. All measurements were done in triplicates. Reaction was carried out for 1 hour and generation of fluorescent product of reaction (aminomethylcoumarin) was measured by reading fluorescence at 1em 460 nm (1ex 360 nm). Changes in DEVDase activity were calculated after subtraction of background fluorescence of substrate incubated without proteins, and were expressed as percent of control (DEVDase activity in untreated cells). Average of DEVDase activity, calculated from few independent experiments, was used to calculate percent of L-ether lipid-induced DEVDase activity.

The subject of another data set is U937. As to the kind of experiment: In vitro growth inhibition (GI50), cell growth assay. The data set is classed as cell-based, human. To be noted: U937 tumor cell line, 3 days. As for the experimental part:
After 3 days of incubation, cell growth was determined.
To determine the Growth Inhibition in the suspension cell lines, cell numbers were directly counted instead of using the SRB assay which determines the total cell protein. One day prior to the drug treatment, 40,000 cells per well were seeded into 24-well plates in a volume of 0.5 mL. Stock solutions were diluted with complete medium to twice the desired final concentrations, and then 0.5 mL aliquots of each dilution were added to the designated wells. After 3 days incubation, cell growth was determined by counting cell number using a coulter counter (Z-M, coulter). Cell counts were-also taken at time 0 and subtracted from the test results to give net growth.

A further data set deals with WI38. As to conditions: for GI50: WI38 normal human fibroblast cell line, 3 days.
Source text: as §1, §2, §3, §4

By GI50 is commonly meant the concentration at which growth is held to half of that of the control. A lower GI50 goes with more potent growth inhibition. Consider `CCCCCCCCCCCCCCCCCCOC[C@@H](COP(=O)([O-])OCC[N+](C)(C)C)OS(C)(=O)=O` [1a′S], for which the GI50 in the data set on A549 came out at 9.3 µM; in the data set with MCF7/ADR, 39 µM; with HT29, 2.6 µM; with U937, 1.4 µM; in the data set with WI38, 16.3 µM. Further, the “% L-ET18OCH3 (DEVDase, 6 hrs)” value was determined as 58.9 ± 9.1% in data set [1] (10 μM ether lipid), 55.5 ± 8.3% in data set [1] (20 μM ether lipid) and 61.3 ± 9.1% in data set [1] (30 μM ether lipid). In data set [1], the “DEVDase activity compared to ET-18-OCH3 (in words)” value is on record as “less DEVDase activity than ET-18-OCH3”. Besides, the “cytotoxicity to normal human fibroblast as compared to ET-18-OCH3 (in words)” value in the data set with WI38 is on record as “less cytotoxic”.

For `CCCCCCCCCCCCCCCCCCOCC(COP(=O)([O-])OCC[N+](C)(C)C)OS(C)(=O)=O` (stereo not shown) [Compound 1aR], the GI50 is 6 µM and 6.6 µM in the data set on A549; over 40 µM in the data set on MCF7/ADR; 2.1 µM and 2.3 µM in the data set on HT29; 1.4 µM in the data set on U937; 40.9 µM in the data set on WI38. Also, the “% L-ET18OCH3 (DEVDase, 6 hrs)” value in data set [1] (10 μM ether lipid) is listed as 56.6 ± 8.3%; in data set [1] (20 μM ether lipid), 52.4 ± 8.6%; in data set [1] (30 μM ether lipid), 51.6 ± 8.1%. In addition, the “DEVDase activity compared to ET-18-OCH3 (in words)” value in data set [1] is on record as “less DEVDase activity than ET-18-OCH3”. Further, the “cytotoxicity to normal human fibroblast as compared to ET-18-OCH3 (in words)” value in the data set with WI38 (WI-38) was “less cytotoxic”.

As to `CCCCCCCCCCCCCCCCCCOCC(COP(=O)([O-])OCC[N+](C)(C)C)OC` [D-ET18OCH3, 1-O-octadecyl-2-O-methyl-glycerophosphocholine, reference compound], the GI50 was 8 µM with A549; 25.1 µM with MCF7/ADR; 5.1 µM in the data set on HT29; 1.4 µM in the data set on U937; 10 to 13.5 µM with WI38. Further, the figures for the “% L-ET18OCH3 (DEVDase, 6 hrs)” value in data set [1] (10 μM ether lipid), in data set [1] (20 μM ether lipid) and in data set [1] (30 μM ether lipid) were 79.3 ± 9.7%, 89.2 ± 12.2% and 92.1 ± 11.8%, respectively.
